Assay results taken from patent US10392419B2, “Modified cyclic dinucleotide compounds” (Boehringer Ingelheim International GmbH, priority 2017, dated 2019).

Assays:
[1] = molecular target: Human STING (hSTING, residues 155-341, wild-type sequence) (Homo sapiens, UniProt Q86WV6, H232R); experiment: hSTING binding by differential scanning fluorimetry (DSF); conditions: for binding to human STING compared to the other diastereomer(s) of the same Example / thermal shift compared to ribose Example 5/Compound 23 in WO 2016/145102: in words
Chain of Human STING (hSTING, residues 155-341, wild-type sequence) (Q86WV6 155-341 H232R limits assumed): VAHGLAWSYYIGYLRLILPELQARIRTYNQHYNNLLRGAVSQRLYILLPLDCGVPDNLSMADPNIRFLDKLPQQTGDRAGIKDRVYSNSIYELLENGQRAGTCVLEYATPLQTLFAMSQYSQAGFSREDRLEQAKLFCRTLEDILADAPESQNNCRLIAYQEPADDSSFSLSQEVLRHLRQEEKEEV
Method: Differential Scanning Fluorimetry (DSF)
Assay buffer: 20 mM Tris, 150 mM NaCl pH7.5
Target Protein: Human STING (hSTING, residues 155-341, wild-type sequence with N-terminal His8-tag and TEV-cleavage site, MW: 23601.5 Da)
Protein stock solution: c=309 μM stock solution in assay buffer
Final Assay concentrations of test compounds: 100 μM, 3 μM target protein, “5×” SYPR Orange
1) Compound stock solutions and dilutions thereof were prepared in assay buffer
2) 5 μl fluorescent dye stock solution (5000×SYPRO Orange) was mixed with 50 μl target protein (309 μM) and 945 μl buffer.
3) 2 μl of this protein-dye-mixture (25×SYPRO Orange and 15 μM Protein) was added to 8 μl compound solution.
4) Certain well positions were used as negative control.
5) The plates were prepared for duplicate measurement and centrifuged for 2 min at 1000 g.
6) In the measurement, 160 cycles of 0.5° C. were used (temperature ramp 15 s/cycle, 15° C. to 95° C.).
Data analysis: The dissociation curves were processed in Bio-Rad CFX Manager. Peak type was set to “negative”. In the case of Examples 1.1, 2.1, 3.1 and 4.1, at least two Tm measurements were averaged.

[2] = molecular target: T1, human STING protein in THP1-Blue ISG cells (Homo sapiens, UniProt Q86WV6, G230A/H232R/R293Q/R71H); experiment: In vitro cytokine induction, THP1-Blue ISG reporter cell assay (IRF-inducible SEAP); type: cell-based; conditions: 24 hours incubation, SEAP OD at 620 nm
T1 construct: endogenous STING levels from the parental, unmodified THP1-Blue ISG cell lines; endogenous in cells; host or cells: THP1-Blue ISG cells
T1 sequence (Q86WV6 whole entry R71H/G230A/H232R/R293Q): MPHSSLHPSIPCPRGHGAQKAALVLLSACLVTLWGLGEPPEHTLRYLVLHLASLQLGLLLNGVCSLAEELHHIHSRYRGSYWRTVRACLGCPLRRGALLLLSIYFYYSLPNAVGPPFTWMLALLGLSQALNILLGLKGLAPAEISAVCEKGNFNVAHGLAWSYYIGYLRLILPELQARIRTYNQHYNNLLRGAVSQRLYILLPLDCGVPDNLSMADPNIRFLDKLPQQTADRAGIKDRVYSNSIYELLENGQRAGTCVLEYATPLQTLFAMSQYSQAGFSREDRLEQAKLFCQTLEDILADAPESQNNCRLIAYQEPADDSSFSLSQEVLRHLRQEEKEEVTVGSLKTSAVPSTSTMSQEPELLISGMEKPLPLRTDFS
Excerpt: In Vitro Cytokine Induction
Activation of the STING protein expressed in THP1 cells results in an increase of interferon production. By the stable integration of an interferon regulatory factor (IRF)-inducible SEAP (secreted embryonic alkaline phosphatase) reporter construct the functional interferon signaling pathway can be monitored. Using Invivogen's QUANTI-Blue™ colorimetric enzyme assay and a suitable optical density (OD) reader the activity of SEAP can be detected and quantified. This technique could be used to characterize pharmacological modification of the STING protein.
Measurements of SEAP activity were performed in THP1-Blue ISG cells stably expressing the human STING protein and the IRF-inducible SEAP reporter construct. Cells were cultivated for expansion in RPMI1640 medium with 10% fetal calf serum, 50 μg/ml Penicillin-Streptomycin, 100 μg/ml Zeocin, and 100 μg/ml Normocin in a 37°, 95% humidity and 5% CO2 incubator. Assay-ready cells were stored as frozen stocks.
In preparation for the assay, the cells were thawed in Zeocin-/Normocin-free medium and were distributed into the assay plates with a density of 15000 cells/15 μL per well. Compounds were prepared by an 8- or 16-point serial dilution in 50% aqueous DMSO and a final dilution step into medium to ensure a final DMSO concentration of 0.5% in the assay. 5 μL of diluted compounds plus 5 μL medium were added to the plates, followed by a 24 hours incubation at 37° C.
At the day of the assay, 75 μl per well of Quanti-Blue reagent was added to all wells of the plate and the plate was incubated another 30 minutes at 37° C. The OD at 620 nm was measured on the EnVision reader (PerkinElmer). EC50 values and Hill slopes were derived from 8- or 16-point four parametric non-linear curve fittings with the Megalab software (Boehringer Ingelheim) using the OD at 620 nm.

[3] = 100 μM test compound, 3 μM target protein
[4] = 100 μM test compound, 3 μM target protein, Sodium Salt

Row | Compound | ΔTm at 100 µM ([1]; 100 μM test compound, 3 μM target protein, read-out: hSTING Tm shift) [°C] | binding to human STING compared to the other diastereomer(s) of the same Example [1] | thermal shift compared to ribose Example 5/Compound 23 in WO 2016/145102 [1] | EC50 [2] [nM] | hSTING Tm shift [1, 3] [°C] | hSTING Tm shift [1, 4] [°C] | EC50 ([2]; Sodium Salt) [nM]
1 | Nc1ncnc2c1ncn2[C@@H]1O[C@@H]2COP(=O)(S)O[C@H]3[C@H]4OC[C@@]3(COP(=O)(S)O[C@H]2[C@H]1F)O[C@H]4n1cnc2c(N)ncnc21 (single isomer, unassigned) [Example 1.1, Cyclic (LNA-adenosine-(3′→5′)-phosphorothioate-2′-F-2′-deoxyadenosine-(3′→5′)-phosphorothioate)] | 27.6 | improved binding to human STING as compared to Example 1.2 | significantly larger thermal shifts | 110 |  |  | 
2 | Nc1ncnc2c1ncn2[C@@H]1O[C@@H]2COP(=O)(S)O[C@H]3[C@H]4OC[C@@]3(COP(=O)(S)O[C@H]2[C@H]1F)O[C@H]4n1cnc2c(N)ncnc21 (single isomer, unassigned) [Example 1.2, Cyclic (LNA-adenosine-(3′→5′)-phosphorothioate-2′-F-2′-deoxyadenosine-(3′→5′)-phosphorothioate)] |  |  |  | 60 | 21.0 |  | 
3 | Nc1nc2c(ncn2C2OC3COP(O)(=S)OC4C(COP(O)(=S)OC3C2F)OC(n2cnc3c(N)ncnc32)C4O)c(=O)[nH]1 (centres unmarked) [Example 5 Compound 23 in WO 2016/145102, 3′3′-RR-(2′F-G)(A), reference compound] |  |  |  |  | 21.1 |  | 
4 | Cyclic (LNA-adenosine-(3′→5′)-phosphorothioate-2′-F-2′-deoxyguanosine-(3′→5′)-phosphorothioate), Sodium Salt [Example 2.1] |  | improved binding to human STING as compared to Example 2.2 | significantly larger thermal shifts |  |  | 30.3 | 140
5 | Cyclic (LNA-adenosine-(3′→5′)-phosphorothioate-2′-F-2′-deoxyguanosine-(3′→5′)-phosphorothioate), Sodium Salt [Example 2.2] |  |  |  |  |  | 21.8 | 50
6 | Cyclic (LNA-adenosine-(3′→5′)-phosphorothioate-2′-F-2′-deoxyinosine-(3′→5′)-phosphorothioate), Sodium Salt [Example 4.1] |  | improved binding to human STING as compared to Example 4.2 | significantly larger thermal shifts |  |  | 30.0 | 170
7 | Cyclic (LNA-adenosine-(3′→5′)-phosphorothioate-2′-F-2′-deoxyinosine-(3′→5′)-phosphorothioate), Sodium Salt [Example 4.2] |  |  |  |  |  | 21.4 | 110
8 | Cyclic (LNA-guanosine-(3′→5′)-phosphorothioate-2′-F-2′-deoxyadenosine-(3′→5′)-phosphorothioate), Sodium Salt [Example 3.1] |  | improved binding to human STING as compared to other Example 3 diastereomers | significantly larger thermal shifts |  |  | 30.7 | 150
9 | Cyclic (LNA-guanosine-(3′→5′)-phosphorothioate-2′-F-2′-deoxyadenosine-(3′→5′)-phosphorothioate), Sodium Salt [Example 3.2] |  |  |  |  |  | 22.4 | 70
10 | Cyclic (LNA-guanosine-(3′→5′)-phosphorothioate-2′-F-2′-deoxyadenosine-(3′→5′)-phosphorothioate), Sodium Salt [Example 3.3] |  |  |  |  |  | 21.6 | 130
11 | Cyclic (LNA-guanosine-(3′→5′)-phosphorothioate-2′-F-2′-deoxyadenosine-(3′→5′)-phosphorothioate), Sodium Salt [Example 3.4] |  |  |  |  |  | 10.9 | 2000
